What was measured:
[1] = target: T1, NLuc-ENL YEATS (Homo sapiens, UniProt Q03111); test: ENL-NanoBRET inhibitor competitive assay; type: cell-based; settings: for IC50: HEK293T cells stably expressing NLuc-ENL YEATS, 1 μM Tracer 2, 2 h, mean ± SD, n = 3; for reduction in NanoBRET signal: concentrations up to 80 μM
T1 construct: DNA encoding the ENL YEATS domain (aa 1–148) was cloned into an NLuc containing plasmid; expressed in transfected cells
T1 sequence (Q03111 1-148): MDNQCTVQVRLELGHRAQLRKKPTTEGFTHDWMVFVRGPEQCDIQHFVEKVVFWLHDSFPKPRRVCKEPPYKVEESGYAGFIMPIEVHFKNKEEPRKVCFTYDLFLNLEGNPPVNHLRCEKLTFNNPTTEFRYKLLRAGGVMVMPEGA
Procedure: Approximately 1.8 × 10^4 HEK293T cells (100 μL) stably expressing NLuc-ENL YEATS were seeded into a white nonbinding 96-well assay plate and incubated overnight at 37 °C in a humidified 5% CO2 atmosphere. After removal of the medium, the cells were added with a tracer (with or without excess of unlabeled compound) in the Opti-MEM with 0.1% DMSO. After incubation at 37 °C for 2 h the assay plate was equilibrated at room temperature for 15 min. For BRET detection, the NanoGlo Substrate and the extracellular NanoLuc inhibitor (Promega, N2160) were diluted with Opti-MEM as described in protocol to afford detection solution. 50 μL of the detection solution was added per well and the plate was incubated for 3 min at room temperature. The donor emission was measured at 450 nm and the acceptor emission at 610 nm using a BioTek SYNERGY neo2 multimode reader. The BRET ratio was calculated according to the following formula: BRET ratio = [(acceptorsample/donorsample) – (acceptorno-tracer control/donorno-tracer control)] × 1000.
Sample procedures were followed for cell seeding as described in the previously described tracer affinity assay. After removal of the medium, the cells were added with a tracer in the medium (1.1 μM, 100 μL) and varied concentrations of a test compound in 0.1% DMSO (10 μL). The plate was thoroughly mixed on an orbital shaker for 15 s at 900 rpm. Then the cells were incubated at 37 °C, 5% CO2 for 2 h for BRET ratio detection as described previously.

[2] = Log D at pH 7.4 (chromatographic procedure); type: physicochemical; settings: n-octanol / aqueous buffer pH 7.4, pH 7.4
Procedure: Log D at 7.4, which is a partition coefficient between n-octanol and aqueous buffer pH 7.4 of the compounds was measured on the chromatographic procedure whose condition was developed based on a published method.[35]

[3] = In vitro stability assay in human plasma; type: in vitro ADME; settings: 37 °C; for Plasma % of parent compound remaining (after 2h incubation): 5 μM, mean ± SD, n = 3
Procedure: The in vitro stability analysis of a test compound was initiated by the addition of the test compound to 90 μL of prewarmed (37 °C) human plasma with a final concentration of 5 μM. All assays were performed in a plate shaker at 37 °C and conducted in triplicate. At 0, 5, 15, 30, 60, and 120 min, 400 μL acetonitrile (with the internal standard diclofenac as 10 μg/mL) was added to deproteinize the plasma and terminate the reaction, the remaining compound was then analyzed by HPLC-MS/MS.

[4] = In vitro metabolic stability assay in HLM; type: in vitro ADME, human; settings: for half-life / half-life at 1 h: read-out: Liver Microsome t1/2; for parent compound remaining after 60 min incubation in HLM: in the presence of NADPH
Procedure: At 0, 5, 15, 30, 45, and 60 min, 200 μL acetonitrile (with the internal standard diclofenac as 10 μg/mL) was added to terminate the reaction, the remaining compound was analyzed by HPLC-MS/MS.

[5] = tested on: MOLM-13 cells; test: Cell toxicity assay (CCK-8), MOLM-13; type: cell-based; settings: Homo sapiens, MOLM-13; 64 μM, 72-h treatment, Figure S8f; read-out: growth inhibition in MOLM-13 cells
Procedure: Approximately 1 × 10^4 JURKAT, MOLM-13, MV4-11 and HEK293T cells in RPMI 1640 (no phenol red) (100 μL) were added to a 96-well plate and treated with DMSO or a compound at indicated concentrations for 72 h or 8 days. Cell viability was measured using the CCK-8 kit (Abcam, ab228554) according to the manufacturer’s instructions.

[6] = target: T2, ENL YEATS (Homo sapiens, UniProt Q03111); test: AlphaScreen assay with biotinylated ENL-S1 peptide; settings: inhibition of ENL YEATS binding to ENL-S1 peptide; mean ± SD, n = 3; read-out: Alpha IC50 (nM) for ENL YEATS
T2 construct: final concentrations of 100 nM His-ENL YEATS, 100 nM Biotin-ENL-S1
T2 sequence (Q03111 1-138 limits assumed): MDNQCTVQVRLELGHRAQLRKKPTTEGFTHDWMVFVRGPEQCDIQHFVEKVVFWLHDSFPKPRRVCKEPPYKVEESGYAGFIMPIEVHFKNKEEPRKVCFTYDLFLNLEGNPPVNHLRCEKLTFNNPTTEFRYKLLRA
Procedure: The AlphaScreen assay was carried out in 384-well plates. Manual assay setup was performed in a 40 μL reaction buffer (50 mM HEPES pH 7.4, 100 mM NaCl, 0.1% bovine serum albumin, and 0.05% CHAPS) with final concentrations of 100 nM His-ENL YEATS, 100 nM Biotin-ENL-S1, and 20 μg/mL of AlphaScreen donor and acceptor beads. The protein, peptide, and compounds were mixed and incubated for 1 h at room temperature and then incubated for 30 min in dark after adding the α beads. AlphaScreen-signals were detected by a multimode microplate reader (BioTeK Synergy Neo2) equipped with an Alpha-laser (PerkinElmer).

[7] = human, human liver microsomes, pH 7.4, HLM 0.5 mg/mL, NADPH 1 mM, mean ± SD, n = 3, read-out: Liver Microsome CLint, pred
[8] = human, human liver microsomes, pH 7.4, HLM 0.5 mg/mL, NADPH 1 mM, mean ± SD, n = 3

| Structure (SMILES) | IC50 [1] [µM] | chromatographic logD [2] | Plasma % of parent compound remaining (after 2h incubation) [3] [%] | CLint scaled at 1 h [4, 7] [mL/min/kg] | half-life at 1 h [4, 8] [h] | also measured |
| --- | --- | --- | --- | --- | --- | --- |
| CC(C)(C)C1CCN1Cc1ccc(CNC(=O)c2ccc3nncn3c2)cc1 (stereo not shown) [inhibitor 14] | > 20 | 0.42 | 97.60 ± 0.74 | – | – | CLint scaled [4, 7]: 2.42 ± 0.14 mL/min/kg; half-life [4, 8]: 12 ± 0.741 h; inhibition at 64 µM [5]: ~30% |
| CC(C)[C@@H]1CCN1Cc1ccc(CNC(=O)c2ccc3nncn3c2)cc1 [13 (S), (S)-N-(4-((2-isopropylazetidin-1-yl)methyl)benzyl)-[1,2,4]triazolo[4,3-a]pyridine-6-carboxamide] | – | – | – | – | – | IC50 [6]: 970 nM |
| O=C(NCc1ccc(CNc2ncc(F)cn2)cc1)c1ccc2nncn2c1 [inhibitor 24] | – | 0.96 | 88.42 ± 4.98 | 9.95 | 2.92 ± 0.22 | degradation after 2 h incubation in human plasma [3]: approximately 15% |
| CSc1ccc(CNC(=O)c2ccc3nncn3c2)cc1 [inhibitor 1] | 1.26 | 1.19 | 84.81 ± 6.84 | 22.2 ± 4.76 | 1.34 ± 0.292 | degradation after 2 h incubation in human plasma [3]: approximately 15%; parent compound remaining after 60 min incubation in HLM [4]: about 60% |
| CC(C)[C@@H]1CCN1Cc1cc2cnc(NC(=O)c3ccc4nncn4c3)cc2[nH]1 [SR-C-107 (S), (S)-N-(2-((2-Isopropylazetidin-1-yl)methyl)-1H-pyrrolo[3,2-c]pyridin-6-yl)-[1,2,4]triazolo[4,3-a]pyridine-6-carboxamide] | 5.67 | 0.89 | 89.11 ± 6.07 | 10.9 | 2.76 ± 0.639 | IC50 [6]: 1380 nM; half-life [4, 8]: 2.75 h |
| O=C(NCc1ccc(CN2CCOCC2)cc1)c1ccc2nncn2c1 [inhibitor 9] | > 80 | -0.1 | – | – | – | reduction in NanoBRET signal [1]: minimal reductions in NanoBRET signal |
| O=C(NCc1cccc(CN2CCC2)c1)c1ccc2nncn2c1 [inhibitor 15] | 3.26 | 0.29 | – | 6.93 | 4.23 ± 0.603 | parent compound remaining after 60 min incubation in HLM [4]: over 90% |
| CC1CCN1Cc1ccc(CNC(=O)c2ccc3nncn3c2)cc1 (stereo not shown) [inhibitor 12] | 1.34 | -0.07 | 85.32 ± 3.24 | 21.6 ± 1.89 | 1.35 ± 0.117 | degradation after 2 h incubation in human plasma [3]: approximately 15%; parent compound remaining after 60 min incubation in HLM [4]: about 60% |
| CN(C)Cc1ccc(CNC(=O)c2ccc3nncn3c2)cc1 [inhibitor 7] | > 80 | 0.28 | – | – | – | – |
| CC(C)[C@H]1CCN1Cc1ccc(CNC(=O)c2ccc3nncn3c2)cc1 [13 (R), (R)-N-(4-((2-Isopropylazetidin-1-yl)methyl)benzyl)-[1,2,4]triazolo[4,3-a]pyridine-6-carboxamide] | – | – | – | – | – | IC50 [6]: 2260 nM |

Continued, in another order:

| IC50 [1] [µM] | chromatographic logD [2] | Plasma % of parent compound remaining (after 2h incubation) [3] [%] | CLint scaled at 1 h [4, 7] [mL/min/kg] | half-life at 1 h [4, 8] [h] | Structure (SMILES) | also measured |
| --- | --- | --- | --- | --- | --- | --- |
| – | 0.17 | – | – | – | O=C(NCc1ccc(CN2CCC2)cc1)c1ccc2nncn2c1 [inhibitor 11] | reduction in NanoBRET signal [1]: minimal reductions in NanoBRET signal |
| > 80 | 0.11 | – | – | – | O=C(NCc1ccc(CN2CCCCC2)cc1)c1ccc2nncn2c1 [inhibitor 8] | reduction in NanoBRET signal [1]: minimal reductions in NanoBRET signal |
